# “Also recorded” adds a separate entry of the source.
# Legend:
# Assay type in all cases: in vivo, mouse
# [1] = test system: CHL-1 human melanoma xenograft; assay: CHL-1 human melanoma xenograft study, tumor volume and plasma MIA ELISA (Example 4)
# Experimental: (§1) MIA ELISA Assay: Equal numbers of human melanoma and colorectal carcinoma cells (˜250,000 cells for each cell line) were seeded onto tissue culture plates and the culture medium for each cell line was collected 48 hr later. Levels of MIA in culture media or plasma were measured by a commercial single-step ELISA kit according to the manufacturer's protocol (Roche Diagnostics Corporation, Indianapolis, Ind.). MIA concentrations in test samples were calculated using a standard curve ranging from 3-37 ng/ml. When the MIA concentration exceeded the highest standard concentration, the samples were diluted 1:5 and assayed again to have the results fall within the linear range of the standard curve. Data were evaluated using the Student t-test (two-tailed distribution, two-sample unequal variance), using P≦0.05 as the level of significance.
# A CHL-1 human melanoma xenograft study was carried out with female athymic nu/nu mice (8-12 weeks old) purchased from Charles River Laboratories (Wilmington, Mass.). Approximately 5×10^6 tumor cells in Matrigel™ were implanted subcutaneously (s.c.) into the hind flank region of mice. Dosing began when tumors reached an average size of 200 mm^3. Caliper measurements were performed twice weekly to estimate tumor volume using the formula: (a×b^2)×0.5, where “a” is the largest diameter and “b” is the length perpendicular to the diameter. […]
# [2] = test system: A375M human melanoma xenograft; assay: Kinetics of plasma MIA and tumor volume in A375M tumor-bearing mice (Example 3)
# Experimental: as §1
# (§2) An A375 human melanoma xenograft study was carried out with female athymic nu/nu mice (8-12 weeks old) purchased from Charles River Laboratories (Wilmington, Mass.). Approximately 2.5×10^6 cells were implanted subcutaneously (s.c.) into the hind flank region of mice. Plasma samples were collected when tumors reached an average size of 250 mm^3 (n=10) and stored at −80° C. prior to MIA analysis. Dosing typically began when tumors reached an average size of 250 mm^3. Caliper measurements were performed twice weekly to estimate tumor volume using the formula: (a×b^2)×0.5, where “a” is the largest diameter and “b” is the length perpendicular to the diameter.
# Methods: The kinetics of MIA concentrations in plasma following drug treatment were investigated as follows. A375M tumor-bearing mice were dosed orally either with CHIR-265 (100 mg/kg), CHIR-258 (60 mg/kg) or vehicle (n=10/group). Plasma samples were collected before dosing was initiated, and again on day 3, 8 and 13. Tumor volumes were measured at the same time points, using methods described in EXAMPLE 2.
# [3] = test system: MEXF 1341 human melanoma tumor explant xenograft; assay: MEXF 1341 human melanoma tumor explant xenograft study, tumor volume and plasma MIA ELISA; details: for tumor growth inhibition, significance vs. vehicle: MEXF 1341 (text prints MEXF 276), P>0.08 v. vehicle; for tumor growth inhibition, significance vs. vehicle / Tumor Volume: day 20; for Tumor Volume: mean ± SE
# Experimental: as §1
# (§3) An MEXF 276 human melanoma tumor explant xenograft study and an MEXF1341 human melanoma tumor explant xenograft study were carried out as follows. The MEXF 276 human melanoma tumor cells and the MEXF1341 human melanoma tumor explant cells were originally derived from surgical specimens isolated from different melanoma patients (obtained from Oncotest GmbH, Institute for Experimental Oncology, Frieburg, Germany) and propagated as xenografts in nude mice. After removal of tumors from donor mice, samples were cut into fragments (1-2 mm diameter) and placed in RPMI 1640 medium before subcutaneous implantation into recipient male NMRI nu/nu mice (6-8 weeks old). Dosing typically began when tumors reached an average size of 6-8 mm in diameter. Animals were maintained under clean-room conditions in sterile filter-top cages and received sterile rodent chow and water ad libitum.
# (§4) In a third experiment, MEXF 1341 human melanoma tumor-bearing mice were randomized and dosed orally with CHIR-265 (100 or 10 mg/kg) or sorafenib (100 mg/kg) n=4/group. The first day of dosing was designated as Day 0. As such, the dosing schedule for CHIR-265 (10 mg/kg) was 10 mg/kg on Day 0, 2, 4, 6, 14, 16 and 20. For CHIR-265 (100 mg/kg) the dosing schedule was 100 mg/kg on Day 0, 2, 14, 16 and 20. Finally, the dosing schedule for sorafenib and PEG400 vehicle was 100 mg/kg every day on Day 0-20. […] Plasma samples were collected 4 hr after the last dose on Day 20 and stored at −80° C. prior to MIA analysis. MIA plasma levels were determined by an ELISA assay carried out as described in EXAMPLE 1.
# [4] = test system: A375M human melanoma xenograft; assay: A375M human melanoma xenograft study, tumor volume and plasma MIA ELISA (Example 2)
# Experimental: as §1, §2
# In a first experiment, A375M human melanoma tumor-bearing mice (n=5) were randomized and dosed orally with CHIR-265 at 100 mg/kg (n=5) or vehicle (n=5) once every other day. Tumor-bearing animals treated with PEG400 buffer alone were used as vehicle control. […] Plasma samples were collected 48 hours post the fourth dose (day 10) for MIA analysis by ELISA.
# [5] = test system: MEXF 276 human melanoma tumor explant xenograft; assay: MEXF 276 human melanoma tumor explant xenograft study, tumor volume and plasma MIA ELISA; details: for Tumor Volume: day 20, mean ± SE; for tumor growth inhibition: day 20
# Experimental: as §1, §3
# as §4, with “second” for “third”, “276” for “1341”, “CHIR-265” for “CHIR-265 (10 mg/kg)”, “CHIR-265” for “CHIR-265 (100 mg/kg)”
structure (smiles),measurement,setting,value
"CN1CCN(c2ccc3[nH]c(-c4c(N)c5c(F)cccc5[nH]c4=O)nc3c2)CC1 [CHIR-258, 4-amino-5-fluoro-3-[5-(4-methylpiperazin-1-yl)-1H-benzimidazol-2-yl]quinolin-2(1H)-one]",effect on tumor volume vs. vehicle,"[1]; CHIR-258 30 mg/kg or 80 mg/kg oral once daily, by day 8, P<0.03",significant tumor growth inhibition
same,plasma MIA levels,"[1]; both CHIR-258 groups (30 and 80 mg/kg), day 8 and subsequent time points",not detectable
same,change in MIA plasma concentration vs. vehicle,"[2]; CHIR-258 60 mg/kg oral, day 3, 60 mg/kg",statistically significant lower levels; also recorded: statistically significant decrease in MIA plasma concentration
same,reduction in MIA levels compared to baseline,"[2]; CHIR-258 60 mg/kg oral, day 13",63%
same,effect on tumor volume / tumor burden vs. vehicle,"[2]; CHIR-258 60 mg/kg oral, from day 8, 60 mg/kg","tumor growth inhibition, however regressions were not observed; also recorded: tumor growth inhibition; also recorded: statistically significant reduction in tumor burden"
"Cn1c(Nc2ccc(C(F)(F)F)cc2)nc2cc(Oc3ccnc(-c4ncc(C(F)(F)F)[nH]4)c3)ccc21 [CHIR-265, {1-Methyl-5-[2-(5-trifluoromethyl-1H-imidazol-2-yl)-pyridin-4-yloxy]-1H-benzoimidazol-2-yl}-(4-trifluoromethyl-phenyl)-amine]","tumor growth inhibition, significance vs. vehicle",[3],did not cause significant tumor growth inhibition
same,Tumor Volume,"[3]; MEXF 1341, CHIR-265 100 mg/kg oral, 100 mg/kg",575±214 mm^3
same,Tumor Volume,"[3]; MEXF 1341, CHIR-265 (10 mg/ml) per table head, 10 mg/kg in text, oral, 10 mg/kg",1190±291 mm^3
same,reduction in plasma MIA,"[3]; MEXF 1341, both CHIR-265 treatments (100 and 10 mg/kg), Day 20, P<0.02",2 fold
same,tumor regression as compared to initial tumor volume (250 mm^3),"[4]; CHIR-265 100 mg/kg oral every other day, after four doses",~50%
same,tumor growth inhibition compared to vehicle treatment,"[4]; CHIR-265 100 mg/kg oral every other day, day 10",70%
same,Tumor Volume,"[4]; CHIR-265 100 mg/kg oral every other day, day 10, mean ± SE, 100 mg/kg",133±14.1 mm^3
same,vehicle median MIA concentration fold higher than CHIR-265 treated mice,"[4]; CHIR-265 100 mg/kg, day 10, n=5/group",17 fold
same,MIA plasma levels,"[4]; after four doses of CHIR-265 100 mg/kg, plasma 48 h post fourth dose (day 10)",~4 ng/mL
same,MIA plasma concentration (median),"[2]; CHIR-265 100 mg/kg oral, day 3, baseline 27.8",10.4 ng/mL
same,reduction in MIA concentration vs. baseline,"[2]; CHIR-265 100 mg/kg, day 3",62%
same,tumor regression,"[2]; CHIR-265 100 mg/kg, day 3",29%
same,MIA plasma concentration,"[2]; CHIR-265 100 mg/kg, day 13",undetectable
same,Tumor Volume,"[5]; CHIR-265 100 mg/kg oral, 100 mg/kg",19±2.9 mm^3
same,Tumor Volume,"[5]; CHIR-265 (10 mg/ml) per table head, 10 mg/kg in text, oral, 10 mg/kg",58±15.2 mm^3
same,tumor growth inhibition,[5]; CHIR-265 at both doses (100 and 10 mg/kg),> 97%
"CNC(=O)c1cc(Oc2ccc(NC(=O)Nc3ccc(Cl)c(C(F)(F)F)c3)cc2)ccn1 [Sorafenib, reference compound]","tumor growth inhibition, significance vs. vehicle",[3],did not cause significant tumor growth inhibition
same,Tumor Volume,"[3]; MEXF 1341, sorafenib 100 mg/kg oral every day",1338±264 mm^3
same,effect on plasma MIA levels,"[3]; MEXF 1341, sorafenib 100 mg/kg, Day 20, P>0.17",reduced plasma MIA levels
same,tumor growth inhibition,[5]; sorafenib 100 mg/kg every day,69%
same,Tumor Volume,[5]; sorafenib 100 mg/kg oral every day,887±196 mm^3
same,median plasma MIA concentration,"[5]; sorafenib 100 mg/kg, plasma 4 hr after last dose on Day 20",28.9 ng/mL

# — patent US8288087B2, “Use of melanoma inhibitory activity (MIA) protein as an early indicator for therapeutic response in melanoma” (Novartis AG, priority 2006, dated 2012)
